{
  "source": "patent US20130085105A1",
  "about": "“Transdermal Administration Of Peptides” (The Provost, Fellows and Scholars of the College of Holy …, priority 2010, published 2013)",
  "key": {"[1]": {"conditions": "human, cited from earlier work"}, "[2]": {"experiment": "Calculation of required transdermal delivery rate in humans (Eqn. 10.5)", "conditions": "human; for required steady-state transdermal flux: skin area of 20 cm^2, Cpss 1 ng/ml (Compound A), 0.5 ng/ml (Compound B, using Compound A parameters)", "method": "(§1) The values obtained for the intermediate dose of 21 μg/Kg were used to determine the necessary input rate, i.e., steady state flux, required in humans to achieve therapeutic plasma levels as outlined by Lee et al. (Res. Comm. Mol. Path. Pharmacol., 85, 337-346, 1994) in their studies on melatonin. […] As described by Chatterjee et al. (Pharm. Res., 14:1058-1065, 1997), the following equation can be used to predict required delivery rates, assuming transdermal delivery can be treated as an intravenous infusion:\nwhere K0 is the required zero order delivery rate to achieve a therapeutic steady state plasma concentration (Cpss). […] Thus, for a skin area of 20 cm^2, the required steady-state transdermal flux would be 0.45 μg/cm^2/hr. Assuming a therapeutic plasma level of 0.5 ng/ml for Compound B and utilizing the relevant Compound A parameters, a required steady-state flux of 0.23 μg/cm^2/hr was calculated for a skin area of 20 cm^2."}, "[3]": {"experiment": "In vitro transdermal permeation, diffusion cell, pig epidermis", "type": "in vitro ADME, domestic pigs", "method": "The viable epidermal layer was removed from the flanks of freshly sacrificed four month-old female domestic pigs. The flank area of each animal was carefully shaved and the upper 200 μm of skin (Meyer, W., et al., Curr. Prob. Dermatol., 7: 39-52, 1978; de Jalón, et al., J. Control. Rel., 75:191-197, 2001) was harvested using an electric dermatome (Robbins Instruments, Chatham, N.J., U.S.A.). Pigskin epidermal specimens were frozen at −18° C. between layers of PBS-soaked tissue paper enclosed in aluminum foil for up to two weeks prior to use in in vitro permeation studies.\nA custom made finite dosing diffusion cell (AGB Scientific, Dublin, Ireland, FIG. 1) based upon and modified from the Keshary-Chien type diffusion cell was used for in vitro permeation studies.\nThree to five diffusion cells were used in each permeation experiment and monitoring was performed over a 48 hour period. The cells were linked in series to a thermostatically controlled circulation bath set at 35° C. to mimic human skin surface temperature. Each cell was placed on a stir-plate set at a defined stirring rate of 1,000 rpm. The surface area for permeation provided by each cell was 3.14 cm^2.\nData collected from each permeation study included:\n1) the average maximum flux obtained in 48 hours (Jmax),\n2) the total absorption characterized as the total weight of peptide delivered transdermally into the receiver compartment over a 48 hour period,\n3) the lag time to detectable flux which was equivalent to the latest sampling time at which no peptide was detectable by HPLC analysis of the receiver solution, and\n4) an equivalent 48-hour steady state flux was determined by obtaining the slope of the best-fit line for a plot of cumulative flux per unit area versus time (described by McDaid, D. M. et al., Int. J. Pharm., 133:71-83, 1996).\nFresh hairless mouse skin samples or fresh or freshly thawed pig skin samples were mounted onto the diffusion cell with the SC topmost and in contact with the donor system. A rubber or plastic ring was placed on top of the skin sample to secure it in position. The combination of the diffusion cell top, the skin and the rubber ring was securely fastened together by means of a threaded cap. A recorded volume of receiver solution was added to the receiver compartment and maintained at 35° C. The receiver solution was 60/40 (v/v) PBS/propylene glycol (pH 7.1). The propylene glycol fraction was used to increase the solubility of the somatostatin-fatty acid salts. Previous work reported by Morgan et al. (J. Pharm. Sci., 87:1213-1218, 1998) has shown that a 50/50 water/propylene glycol receptor solution had no detrimental effect on the barrier integrity of both hairless mouse and porcine skin.\nThe receiver solution was allowed to equilibrate at 35° C. for 30 minutes. The experiment was initiated by the application of 1 ml of donor solution containing approximately 5 mg free base peptide in DMSO to the skin surface followed by sealing of the donor compartment with Parafilm®. A narrow-bore hypodermic needle was used to withdraw 1 ml samples from the receiver compartment via the sampling port; at each sampling time, an equal volume of drug-free receiver solution was immediately added back to the receiver compartment. Samples were analyzed by HPLC.\nHPLC determination of peptide content in the receiver solution along with the known surface area of skin used (3.14 cm^2) allowed for calculation of transdermal flux (in units of μg/cm^2/hr) for each time point. Panels 1 and 2 of FIG. 2 show flux profiles obtained for the oleate salts of Compound A and Compound B in DMSO which far exceeded the flux profiles for the myristate, octanoate, decanoate, linoleate, nonanote, acetate and laurate salts of Compound A as well as the acetate salt of Compound B in DMSO. […]"}, "[4]": {"experiment": "Pharmacokinetics of Compound A after i.v. infusion to healthy human volunteers (Chassard et al.)", "type": "in vivo", "method": "A number of basic equations exist for the prediction of drug plasma levels in humans obtained by transdermal delivery. In order to make use of these equations, basic human pharmacokinetic parameters are required for the drug in question. Chassard et al. (J. Endocrinol. Invest. 20(Supp. to no. 7):30-32, 1997) reported on the pharmacokinetics of Compound A after i.v. infusion of 7, 21 and 42 μg/Kg to healthy human volunteers (n=12) obtaining values as shown in Table 20.\nas §1, with “infusion: […]” for “infusion:”"}, "[5]": {"conditions": "cited from earlier work"}, "[6]": {"conditions": "mice, topical with 1% N-decylmethylsulfoxide, within 2 hours of administration; cited from earlier work"}, "[7]": {"conditions": "rabbits, iontophoresis; cited from earlier work"}},
  "note": "Where two headings read alike, the source gives them in different places.",
  "data": [
    {"smiles": "CC(C)[C@@H]1NC(=O)[C@H](CCCCN)NC(=O)[C@@H](Cc2c[nH]c3ccccc23)NC(=O)[C@H](Cc2ccc(O)cc2)NC(=O)[C@@H](NC(=O)[C@H](N)Cc2ccc3ccccc3c2)CSSC[C@@H](C(=O)N[C@H](C(N)=O)[C@@H](C)O)NC1=O", "note": "[Compound A, D-2-Nal-c(Cys-Tyr-D-Trp-Lys-Val-Cys)-Thr-NH2]", "values": [
      {"measurement": "AUC", "setting": "[1]; i.v. infusion 7 μg/Kg", "value": "21.2 ± 4.1 (ng/ml)/hr"},
      {"measurement": "CL", "setting": "[1]; i.v. infusion 7 μg/Kg", "value": "341 ± 62 (ml/hr)/Kg"},
      {"measurement": "Kel", "setting": "[1]; i.v. infusion 7 μg/Kg", "value": "0.87 ± 0.11", "unit": "h⁻¹"},
      {"measurement": "MRTinfusion", "setting": "[1]; i.v. infusion 7 μg/Kg", "value": "42 ± 6", "unit": "min"},
      {"measurement": "Vss", "setting": "[1]; i.v. infusion 7 μg/Kg", "value": "0.194 ± 0.041", "unit": "L/kg"},
      {"measurement": "t1/2", "setting": "[1]; i.v. infusion 7 μg/Kg", "value": "48 ± 6", "unit": "min"},
      {"measurement": "AUC", "setting": "[1]; i.v. infusion 21 μg/Kg", "value": "74.3 ± 13.7 (ng/ml)/hr"},
      {"measurement": "CL", "setting": "[1]; i.v. infusion 21 μg/Kg", "value": "292 ± 58 (ml/hr)/Kg"},
      {"measurement": "Kel", "setting": "[1]; i.v. infusion 21 μg/Kg", "value": "0.69 ± 0.07", "unit": "h⁻¹"},
      {"measurement": "MRTinfusion", "setting": "[1]; i.v. infusion 21 μg/Kg", "value": "48 ± 6", "unit": "min"},
      {"measurement": "Vss", "setting": "[1]; i.v. infusion 21 μg/Kg", "value": "0.186 ± 0.044", "unit": "L/kg"},
      {"measurement": "t1/2", "setting": "[1]; i.v. infusion 21 μg/Kg", "value": "60 ± 6", "unit": "min"},
      {"measurement": "AUC", "setting": "[1]; i.v. infusion 42 μg/Kg", "value": "180.6 ± 46.6 (ng/ml)/hr"},
      {"measurement": "CL", "setting": "[1]; i.v. infusion 42 μg/Kg", "value": "249 ± 72 (ml/hr)/Kg"},
      {"measurement": "Kel", "setting": "[1]; i.v. infusion 42 μg/Kg", "value": "0.43 ± 0.09", "unit": "h⁻¹"},
      {"measurement": "MRTinfusion", "setting": "[1]; i.v. infusion 42 μg/Kg", "value": "54 ± 12", "unit": "min"},
      {"measurement": "Vss", "setting": "[1]; i.v. infusion 42 μg/Kg", "value": "0.187 ± 0.049", "unit": "L/kg"},
      {"measurement": "t1/2", "setting": "[1]; i.v. infusion 42 μg/Kg", "value": "96 ± 18", "unit": "min"},
      {"measurement": "required input rate (K0)", "setting": "[2]; required Cpss=1 ng/ml, Eqn. 10.5", "value": 8.98, "unit": "µg/h"},
      {"measurement": "required steady-state transdermal flux", "setting": "[2]", "value": 0.45, "unit": "μg/cm^2/hr"},
      {"measurement": "estimated daily systemic delivery across human skin", "setting": "[3]; from Jss across pig epidermis, 55/40/5 ethanol/water/cineole, patch area of 20 cm^2", "value": "approximately 0.675 mg"},
      {"measurement": "CL for a 70 Kg human", "setting": "[4]; 292 (ml/hr)/Kg×70 Kg", "value": "20,440 cm^3/hr"},
      {"measurement": "Vd", "setting": "[4]; human, plasma, intravenous, 21 ug/kg, from Vss at 21 μg/Kg multiplied by 70 Kg", "value": 13, "unit": "L"}
    ]},
    {"smiles": "CC(C(=O)O)c1ccc(N=[N+]=[N-])cc1", "note": "(stereo not drawn) [azidoprofen]", "values": [
      {"measurement": "flux through hairless mouse skin", "setting": "[5]; donor concentration 6 μmol cm-3", "value": 0.236, "unit": "μmol cm-2 hr-1"},
      {"measurement": "flux through hairless mouse skin", "setting": "[5]; donor concentration 15 μmol cm-3", "value": 0.649, "unit": "μmol cm-2 hr-1"}
    ]},
    {"smiles": "C[C@@H](O)[C@@H]1NC(=O)[C@H](CCCCN)NC(=O)[C@@H](Cc2c[nH]c3ccccc23)NC(=O)[C@H](Cc2ccccc2)NC(=O)[C@@H](NC(=O)[C@H](N)Cc2ccccc2)CSSC[C@@H](C(=O)N[C@H](CO)[C@@H](C)O)NC1=O", "note": "[octreotide, D-Phe-c(Cys-Phe-D-Trp-Lys-Thr-Cys)-Thr-ol]", "values": [
      {"measurement": "plasma levels of peptide", "setting": "[6]", "value": "> 8", "unit": "ng/mL"},
      {"measurement": "apparent bioavailability", "setting": "[7]", "value": "approximately 8%"},
      {"measurement": "therapeutic plasma concentration throughout the iontophoretic episode", "setting": "[7]", "value": "greater than 1 ng/ml"}
    ]},
    {"smiles": "CC[C@@H]1NC(=O)[C@H](CCCCN)NC(=O)[C@@H](Cc2c[nH]c3ccccc23)NC(=O)[C@H](Cc2ccc(O)cc2)NC(=O)[C@@H](NC(=O)[C@@H](Cc2ccccc2)NC(=O)CN2CCN(CCO)CC2)CSSC[C@@H](C(=O)N[C@H](C(N)=O)[C@@H](C)O)NC1=O", "note": "[Compound B, [4-(2-hydroxyethyl)]-1-piperazinylacetyl-D-Phe-c(Cys-Tyr-D-Trp-Lys-Abu-Cys)-Thr-NH2]", "values": [
      {"measurement": "required steady-state transdermal flux", "setting": "[2]", "value": 0.23, "unit": "μg/cm^2/hr"},
      {"measurement": "estimated daily systemic delivery across human skin", "setting": "[3]", "value": "approximately 2.665 mg"}
    ]}
  ]
}
